Data from ChEMBL document CHEMBL5042504 (J Med Chem, 2022).
The source made the active and inactive calls. The rule behind the calls is not given here.

Assays:
[1] = target: T1, Protein deacetylase HDAC6 (Homo sapiens, UniProt Q9UBN7); assay: Inhibition of human recombinant HDAC6 using Boc-Lys(acetyl)-AMC substrate incubated for 2 hrs by fluorescence based assay
T1 sequence (Q9UBN7 whole entry): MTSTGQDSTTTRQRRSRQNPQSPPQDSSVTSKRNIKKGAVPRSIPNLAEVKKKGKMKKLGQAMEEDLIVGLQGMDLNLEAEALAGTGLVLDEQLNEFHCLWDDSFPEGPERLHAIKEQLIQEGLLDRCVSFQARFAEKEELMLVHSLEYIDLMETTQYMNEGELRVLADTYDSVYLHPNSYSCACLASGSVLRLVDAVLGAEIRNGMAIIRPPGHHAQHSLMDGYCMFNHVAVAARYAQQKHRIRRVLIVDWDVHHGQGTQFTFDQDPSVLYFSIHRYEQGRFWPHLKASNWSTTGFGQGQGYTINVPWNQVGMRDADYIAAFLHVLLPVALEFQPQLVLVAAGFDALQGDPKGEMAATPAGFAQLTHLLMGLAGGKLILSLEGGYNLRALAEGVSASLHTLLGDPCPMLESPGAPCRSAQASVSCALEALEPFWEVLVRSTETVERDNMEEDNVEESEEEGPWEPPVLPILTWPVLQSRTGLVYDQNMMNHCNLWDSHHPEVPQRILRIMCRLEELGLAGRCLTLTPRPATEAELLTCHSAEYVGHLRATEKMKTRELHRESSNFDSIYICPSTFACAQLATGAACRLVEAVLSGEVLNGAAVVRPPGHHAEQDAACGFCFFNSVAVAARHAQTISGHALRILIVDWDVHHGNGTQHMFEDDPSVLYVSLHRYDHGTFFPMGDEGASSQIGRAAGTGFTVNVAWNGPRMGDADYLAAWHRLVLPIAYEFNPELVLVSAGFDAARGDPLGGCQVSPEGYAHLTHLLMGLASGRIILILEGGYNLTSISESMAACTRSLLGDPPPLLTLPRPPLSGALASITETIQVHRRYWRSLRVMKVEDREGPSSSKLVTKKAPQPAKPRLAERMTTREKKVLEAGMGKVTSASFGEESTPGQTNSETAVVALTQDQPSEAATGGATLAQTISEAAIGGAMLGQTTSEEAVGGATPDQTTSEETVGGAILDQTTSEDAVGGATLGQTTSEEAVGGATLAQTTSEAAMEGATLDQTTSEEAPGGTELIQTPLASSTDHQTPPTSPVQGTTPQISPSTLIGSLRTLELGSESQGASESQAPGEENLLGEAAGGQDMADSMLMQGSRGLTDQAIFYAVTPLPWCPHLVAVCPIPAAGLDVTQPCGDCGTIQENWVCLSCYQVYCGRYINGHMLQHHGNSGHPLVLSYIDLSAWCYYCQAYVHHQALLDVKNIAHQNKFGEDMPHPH

Histone deacetylase 4 = Histone deacetylase 4 (Homo sapiens, UniProt P56524); assay: Inhibition of human recombinant HDAC4 using Boc-Lys(triflouroacetyI)-AMC substrate incubated for 2 hrs by fluorescence based assay
Sequence of Histone deacetylase 4 (P56524 whole entry): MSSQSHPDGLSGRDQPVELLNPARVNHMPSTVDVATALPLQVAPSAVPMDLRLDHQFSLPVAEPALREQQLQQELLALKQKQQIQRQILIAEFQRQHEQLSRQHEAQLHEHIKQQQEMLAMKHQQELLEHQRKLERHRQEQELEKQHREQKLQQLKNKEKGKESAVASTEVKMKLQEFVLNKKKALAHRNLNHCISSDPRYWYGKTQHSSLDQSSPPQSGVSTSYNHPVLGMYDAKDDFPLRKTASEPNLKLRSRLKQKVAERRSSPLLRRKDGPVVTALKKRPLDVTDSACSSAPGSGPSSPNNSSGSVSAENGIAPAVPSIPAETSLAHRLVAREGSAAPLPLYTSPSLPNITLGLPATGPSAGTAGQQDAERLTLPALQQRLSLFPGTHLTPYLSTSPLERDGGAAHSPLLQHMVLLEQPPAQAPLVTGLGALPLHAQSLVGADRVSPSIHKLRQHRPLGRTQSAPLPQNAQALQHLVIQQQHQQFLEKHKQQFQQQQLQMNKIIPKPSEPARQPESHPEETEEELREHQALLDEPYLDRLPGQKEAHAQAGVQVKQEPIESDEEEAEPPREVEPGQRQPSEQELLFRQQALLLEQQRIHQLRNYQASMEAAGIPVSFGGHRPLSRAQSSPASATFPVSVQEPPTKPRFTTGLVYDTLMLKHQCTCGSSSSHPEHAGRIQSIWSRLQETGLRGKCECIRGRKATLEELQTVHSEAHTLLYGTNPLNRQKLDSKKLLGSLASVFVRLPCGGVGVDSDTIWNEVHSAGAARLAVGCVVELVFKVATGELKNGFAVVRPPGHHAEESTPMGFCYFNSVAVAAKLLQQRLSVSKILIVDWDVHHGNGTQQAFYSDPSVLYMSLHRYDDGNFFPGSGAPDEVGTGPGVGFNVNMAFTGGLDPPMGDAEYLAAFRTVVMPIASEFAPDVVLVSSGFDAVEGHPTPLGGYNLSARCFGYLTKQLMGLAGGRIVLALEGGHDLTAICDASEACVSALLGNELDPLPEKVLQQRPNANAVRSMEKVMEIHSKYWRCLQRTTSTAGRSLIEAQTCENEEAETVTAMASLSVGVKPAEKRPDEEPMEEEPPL

Histone deacetylase 8 = target: T2, Histone deacetylase 8 (Homo sapiens, UniProt Q9BY41); assay: Inhibition of human recombinant HDAC8 using Boc-Lys(triflouroacetyI)-AMC substrate incubated for 2 hrs by fluorescence based assay
T2 sequence (Q9BY41 whole entry): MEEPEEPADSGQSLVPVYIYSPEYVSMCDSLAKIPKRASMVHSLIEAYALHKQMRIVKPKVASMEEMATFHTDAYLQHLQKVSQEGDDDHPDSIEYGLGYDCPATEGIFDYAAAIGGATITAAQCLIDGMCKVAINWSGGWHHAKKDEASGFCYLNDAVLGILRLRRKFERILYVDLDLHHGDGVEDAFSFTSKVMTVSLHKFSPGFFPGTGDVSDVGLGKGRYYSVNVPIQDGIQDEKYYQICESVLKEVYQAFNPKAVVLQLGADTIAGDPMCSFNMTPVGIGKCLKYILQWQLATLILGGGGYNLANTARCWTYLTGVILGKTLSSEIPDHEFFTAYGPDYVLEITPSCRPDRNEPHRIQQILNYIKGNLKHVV

Histone deacetylase 9 = Histone deacetylase 9 (Homo sapiens, UniProt Q9UKV0); assay: Inhibition of human recombinant HDAC9 using Boc-Lys(triflouroacetyI)-AMC substrate incubated for 2 hrs by fluorescence based assay
Sequence of Histone deacetylase 9 (Q9UKV0 whole entry): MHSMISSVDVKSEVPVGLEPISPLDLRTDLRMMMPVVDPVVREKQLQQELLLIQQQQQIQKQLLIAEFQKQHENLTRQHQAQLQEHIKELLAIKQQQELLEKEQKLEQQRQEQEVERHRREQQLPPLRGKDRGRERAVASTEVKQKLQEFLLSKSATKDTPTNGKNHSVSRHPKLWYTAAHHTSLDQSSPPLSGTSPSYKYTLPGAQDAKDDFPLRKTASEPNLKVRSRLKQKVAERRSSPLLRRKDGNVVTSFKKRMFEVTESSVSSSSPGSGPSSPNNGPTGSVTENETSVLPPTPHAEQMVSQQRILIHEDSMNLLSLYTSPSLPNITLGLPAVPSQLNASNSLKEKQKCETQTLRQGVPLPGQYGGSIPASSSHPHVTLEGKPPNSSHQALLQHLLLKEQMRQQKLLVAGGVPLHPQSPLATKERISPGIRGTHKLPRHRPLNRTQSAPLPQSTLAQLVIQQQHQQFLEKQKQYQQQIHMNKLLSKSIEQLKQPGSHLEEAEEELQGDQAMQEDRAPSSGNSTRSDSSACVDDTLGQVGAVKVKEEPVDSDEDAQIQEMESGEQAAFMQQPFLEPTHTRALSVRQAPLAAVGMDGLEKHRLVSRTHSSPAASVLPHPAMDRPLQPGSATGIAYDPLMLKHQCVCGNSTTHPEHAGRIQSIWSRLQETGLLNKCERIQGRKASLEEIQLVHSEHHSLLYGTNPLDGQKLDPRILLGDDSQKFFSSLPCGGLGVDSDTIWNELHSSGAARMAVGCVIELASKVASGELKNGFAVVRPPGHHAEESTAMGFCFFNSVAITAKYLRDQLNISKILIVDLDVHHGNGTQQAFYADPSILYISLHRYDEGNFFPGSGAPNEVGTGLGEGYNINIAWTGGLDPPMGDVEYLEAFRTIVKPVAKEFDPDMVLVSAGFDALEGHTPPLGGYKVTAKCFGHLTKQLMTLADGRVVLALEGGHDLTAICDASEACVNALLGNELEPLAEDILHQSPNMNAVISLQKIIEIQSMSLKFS

[2] = target: T3, Polyamine deacetylase HDAC10 (Homo sapiens, UniProt Q969S8); assay: Inhibition of human recombinant HDAC10 using Boc-Lys(triflouroacetyI)-AMC substrate incubated for 2 hrs by fluorescence based assay
T3 sequence (Q969S8 whole entry): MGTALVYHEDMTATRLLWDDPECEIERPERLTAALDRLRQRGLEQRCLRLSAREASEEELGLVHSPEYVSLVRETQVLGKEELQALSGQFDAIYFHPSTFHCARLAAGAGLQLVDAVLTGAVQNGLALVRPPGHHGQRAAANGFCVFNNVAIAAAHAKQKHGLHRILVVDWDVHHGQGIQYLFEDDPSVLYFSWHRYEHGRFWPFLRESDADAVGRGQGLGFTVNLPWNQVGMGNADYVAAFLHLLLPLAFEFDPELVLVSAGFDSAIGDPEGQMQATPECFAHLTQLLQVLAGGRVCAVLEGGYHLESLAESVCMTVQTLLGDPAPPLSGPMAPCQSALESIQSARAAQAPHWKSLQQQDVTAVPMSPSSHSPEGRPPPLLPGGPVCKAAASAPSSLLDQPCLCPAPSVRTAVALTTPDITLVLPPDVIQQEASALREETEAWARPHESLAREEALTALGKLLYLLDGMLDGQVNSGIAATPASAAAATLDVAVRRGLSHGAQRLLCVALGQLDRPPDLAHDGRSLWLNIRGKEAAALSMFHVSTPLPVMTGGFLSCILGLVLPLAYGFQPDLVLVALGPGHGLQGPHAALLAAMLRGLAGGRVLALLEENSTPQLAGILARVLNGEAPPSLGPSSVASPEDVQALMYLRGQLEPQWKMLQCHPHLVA

MOLM-13 = assay: Antiproliferative activity against human MOLM-13 cells assessed as reduction in cell viability measured after 48 hrs by multiplate reader method; conditions: MOLM-13, 48 h
RS4-11 = assay: Antiproliferative activity against human RS4-11 cells assessed as reduction in cell viability measured after 48 hrs by multiplate reader method; conditions: RS4-11, 48 h
HL-60 = assay: Antiproliferative activity against human HL-60 cells assessed as reduction in cell viability after 48 hrs by multiplate reader method; conditions: HL-60, 48 h
U-937 = assay: Antiproliferative activity against human U-937 cells assessed as reduction in cell viability after 48 hrs by MTT assay; conditions: U-937, 48 h
MV4-11 [3] = assay: Up regulation of acetylated histoneH4 in expression in human MV4-11 cells at 100 nM measured after 24 hrs by Western blot analysis; format: functional, cell-based
MV4-11 [4] = assay: Up regulation of acetylated histoneH4 ine expression in human MV4-11 cells at 200 nM measured after 24 hrs by Western blot analysis; format: functional, cell-based

IC50 [1] [nM]	IC50 (Histone deacetylase 4) [nM]	IC50 (Histone deacetylase 8) [nM]	IC50 (Histone deacetylase 9) [nM]	IC50 [2] [nM]	IC50 (MOLM-13) [nM]	IC50 (RS4-11) [nM]	IC50 (HL-60) [nM]	IC50 (U-937) [nM]	SMILES	Activity (MV4-11 [3])	Activity (MV4-11 [4])
> 10000	> 5000	> 5000	> 5000	> 5000	40.4	31.5	26.2	60.5	CCCNNC(=O)c1ccc(CNC(=O)c2cc3ccccc3[nH]2)cc1	Active	Active
> 10000	> 5000	> 5000	> 5000	> 5000	103	82	51.7	161	CCCNNC(=O)c1ccc(CNC(=O)/C=C/c2ccccc2)cc1	Active	Active
